# Source: PMC10799918, “Revealing the mechanistic interactions of profenofos and captan pesticides with serum protein via biophysical and computational investigations” (Scientific Reports, 2024)
# Molecular target: T1, bovine serum albumin (BSA) (Bos taurus, UniProt P02769)
# T1 construct: gene ALB; PDB 4F5S used for docking only
# Assay: intrinsic fluorescence quenching (ex […] nm, em […] nm), double-logarithmic plot
# Type: binding
# Conditions: 310 K, pH 7.4, 10 mM Tris-HCl, 150 mM NaCl, 2 uM BSA, 0.1% acetonitrile, no site probe; double-log
# T1 sequence (P02769 25-607): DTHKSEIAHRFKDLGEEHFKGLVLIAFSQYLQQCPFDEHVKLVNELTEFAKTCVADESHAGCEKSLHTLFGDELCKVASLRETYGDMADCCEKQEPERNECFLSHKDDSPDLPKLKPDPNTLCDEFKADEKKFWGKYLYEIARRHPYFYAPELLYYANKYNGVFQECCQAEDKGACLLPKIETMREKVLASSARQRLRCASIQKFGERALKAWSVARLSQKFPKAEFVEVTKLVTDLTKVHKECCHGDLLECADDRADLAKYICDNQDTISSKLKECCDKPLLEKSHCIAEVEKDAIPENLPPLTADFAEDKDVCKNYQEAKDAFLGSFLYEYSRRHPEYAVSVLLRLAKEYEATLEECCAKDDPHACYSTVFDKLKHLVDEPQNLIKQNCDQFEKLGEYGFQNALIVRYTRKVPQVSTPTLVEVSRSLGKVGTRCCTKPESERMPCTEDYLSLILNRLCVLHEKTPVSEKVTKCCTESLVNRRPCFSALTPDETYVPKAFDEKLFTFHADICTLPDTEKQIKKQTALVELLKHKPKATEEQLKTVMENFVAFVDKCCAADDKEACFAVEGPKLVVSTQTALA
SMILES,Ka,Ka (M^-1)
"CCCSP(=O)(OCC)Oc1ccc(Br)cc1Cl (centres unmarked) [compound 1, 4-bromo-2-chloro-1-[ethoxy(propylsulfanyl)phosphoryl]oxybenzene]",3897 ± 1.49 M⁻¹,–
"O=C1C2CC=CCC2C(=O)N1SC(Cl)(Cl)Cl (centres unmarked) [compound 2, 2-(trichloromethylsulfanyl)-3a,4,7,7a-tetrahydroisoindole-1,3-dione]",–,"14,581 ± 1.40 M^-1"
